Reference: ChEMBL document CHEMBL3779848, “Effect of chlorine substituent on cytotoxic activities: Design and synthesis of systematically modified 2,4-diphenyl-5H-indeno[1,2-b]pyridines” (Bioorg Med Chem Lett, 2016)
Structures can show the parent of a compound that is named as a salt.

Assays:
[1] = biological target: T1, DNA topoisomerase 1 (Homo sapiens) (UniProt P11387); assay: Inhibition of human recombinant DNA topoisomerase 1 at 100 uM assessed as relaxation of supercoiled DNA pBR322 after 30 mins by Agarose gel electrophoresis
T1 sequence (whole entry): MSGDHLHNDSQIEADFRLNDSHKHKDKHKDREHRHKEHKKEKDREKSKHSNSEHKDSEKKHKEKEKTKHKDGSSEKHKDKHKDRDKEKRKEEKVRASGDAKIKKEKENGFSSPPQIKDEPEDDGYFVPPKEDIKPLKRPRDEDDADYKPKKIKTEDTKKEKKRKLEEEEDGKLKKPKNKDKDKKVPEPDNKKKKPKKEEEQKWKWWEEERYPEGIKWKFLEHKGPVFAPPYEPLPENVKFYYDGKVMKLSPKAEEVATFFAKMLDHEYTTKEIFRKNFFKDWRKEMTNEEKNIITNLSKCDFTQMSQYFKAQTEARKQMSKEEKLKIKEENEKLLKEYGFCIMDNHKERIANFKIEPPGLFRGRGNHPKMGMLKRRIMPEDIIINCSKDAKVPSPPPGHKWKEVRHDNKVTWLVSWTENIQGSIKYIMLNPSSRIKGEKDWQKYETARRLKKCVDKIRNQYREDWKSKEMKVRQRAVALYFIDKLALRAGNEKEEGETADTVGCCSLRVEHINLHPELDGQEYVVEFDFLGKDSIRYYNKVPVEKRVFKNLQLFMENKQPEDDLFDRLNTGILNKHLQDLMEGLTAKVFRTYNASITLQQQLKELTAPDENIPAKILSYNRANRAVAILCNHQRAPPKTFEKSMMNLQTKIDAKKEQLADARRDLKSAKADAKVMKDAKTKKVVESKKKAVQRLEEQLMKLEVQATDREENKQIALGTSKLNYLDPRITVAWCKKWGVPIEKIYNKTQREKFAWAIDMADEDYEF

[2] = biological target: DNA topoisomerase 2-alpha (Homo sapiens) (UniProt P11388); assay: Inhibition of human recombinant DNA topoisomerase 2alpha at 100 uM assessed as relaxation of supercoiled DNA pBR322 after 30 mins by Agarose gel electrophoresis
Chain of DNA topoisomerase 2-alpha (Homo sapiens) (P11388 whole entry): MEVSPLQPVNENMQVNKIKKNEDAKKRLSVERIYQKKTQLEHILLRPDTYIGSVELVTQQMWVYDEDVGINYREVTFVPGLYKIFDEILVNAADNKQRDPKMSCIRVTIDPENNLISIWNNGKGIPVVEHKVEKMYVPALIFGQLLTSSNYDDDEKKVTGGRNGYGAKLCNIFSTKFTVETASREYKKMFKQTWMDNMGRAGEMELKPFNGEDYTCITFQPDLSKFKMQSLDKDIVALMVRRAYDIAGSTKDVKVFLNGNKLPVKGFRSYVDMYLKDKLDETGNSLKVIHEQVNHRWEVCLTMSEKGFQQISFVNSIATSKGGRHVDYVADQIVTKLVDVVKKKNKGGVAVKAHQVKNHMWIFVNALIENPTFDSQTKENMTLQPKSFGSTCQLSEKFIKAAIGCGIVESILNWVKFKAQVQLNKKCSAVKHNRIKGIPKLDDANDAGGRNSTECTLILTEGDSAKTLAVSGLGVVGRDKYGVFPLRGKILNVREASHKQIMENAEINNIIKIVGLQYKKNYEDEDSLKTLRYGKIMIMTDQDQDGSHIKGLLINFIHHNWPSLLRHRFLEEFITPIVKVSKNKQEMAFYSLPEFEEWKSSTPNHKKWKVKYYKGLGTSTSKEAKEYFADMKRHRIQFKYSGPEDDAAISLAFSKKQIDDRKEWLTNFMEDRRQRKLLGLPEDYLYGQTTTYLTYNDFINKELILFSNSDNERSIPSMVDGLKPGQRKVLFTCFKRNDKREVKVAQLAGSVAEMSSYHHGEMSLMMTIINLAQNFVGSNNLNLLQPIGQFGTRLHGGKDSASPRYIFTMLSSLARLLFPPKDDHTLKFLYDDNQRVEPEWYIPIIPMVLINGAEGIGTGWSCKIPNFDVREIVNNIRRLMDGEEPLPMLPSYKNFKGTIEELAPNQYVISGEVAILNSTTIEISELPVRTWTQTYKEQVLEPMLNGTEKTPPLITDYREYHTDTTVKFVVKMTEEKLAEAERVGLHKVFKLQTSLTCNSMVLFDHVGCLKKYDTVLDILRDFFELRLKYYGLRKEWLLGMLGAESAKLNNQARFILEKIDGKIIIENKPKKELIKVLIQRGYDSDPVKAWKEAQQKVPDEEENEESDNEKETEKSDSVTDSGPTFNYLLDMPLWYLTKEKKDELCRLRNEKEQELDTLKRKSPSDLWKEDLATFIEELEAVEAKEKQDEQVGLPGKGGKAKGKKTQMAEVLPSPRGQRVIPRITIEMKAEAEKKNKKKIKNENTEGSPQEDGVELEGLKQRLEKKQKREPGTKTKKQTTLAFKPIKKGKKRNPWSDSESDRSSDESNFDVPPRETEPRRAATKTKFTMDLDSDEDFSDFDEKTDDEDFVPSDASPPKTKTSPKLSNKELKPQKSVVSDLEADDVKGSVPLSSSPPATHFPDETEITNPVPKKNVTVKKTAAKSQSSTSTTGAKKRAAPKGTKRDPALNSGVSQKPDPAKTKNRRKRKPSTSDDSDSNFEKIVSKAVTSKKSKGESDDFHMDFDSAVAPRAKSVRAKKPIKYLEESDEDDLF

[3] = Cytotoxicity against human HCT15 cells after 3 days by CCK8 assay; assay type: functional, cell-based; conditions: HCT-15, 72 h
T47D [4] = assay: Cytotoxicity against human T47D cells after 3 days by CCK8 assay; assay type: functional, cell-based; conditions: 72 h
HeLa [5] = assay: Cytotoxicity against human HeLa cells after 3 days by CCK8 assay; assay type: functional, cell-based; conditions: 72 h
[6] = Potency index, ratio of IC50 for adriamycin to IC50 for test compound for cytotoxicity against human HCT15 cells; assay type: functional, HCT-15
T47D [7] = assay: Potency index, ratio of IC50 for adriamycin to IC50 for test compound for cytotoxicity against human T47D cells; assay type: functional
HeLa [8] = assay: Potency index, ratio of IC50 for adriamycin to IC50 for test compound for cytotoxicity against human HeLa cells; assay type: functional
[9] = biological target: T1, DNA topoisomerase 1 (Homo sapiens); assay: Inhibition of human recombinant DNA topoisomerase 1 at 20 uM assessed as relaxation of supercoiled DNA pBR322 after 30 mins by Agarose gel electrophoresis

Compound | inhibition [1] | inhibition [2] | IC50 [3] | IC50 (T47D [4]) | IC50 (HeLa [5]) | Ratio IC50 [6] | Ratio IC50 (T47D [7]) | Ratio IC50 (HeLa [8]) | inhibition [9]
Oc1ccccc1-c1cc(-c2ccccc2)c2c(n1)-c1ccccc1C2 | 1.3% | 36.4% | > 50000 nM | > 50000 nM | > 50000 nM | – | – | – | –
Oc1ccccc1-c1cc(-c2ccccc2Cl)c2c(n1)-c1ccccc1C2 | 0% | 4.8% | > 50000 nM | > 50000 nM | > 50000 nM | – | – | – | –
Oc1ccccc1-c1cc(-c2cccc(Cl)c2)c2c(n1)-c1ccccc1C2 | 1.1% | 2.8% | > 50000 nM | > 50000 nM | > 50000 nM | – | – | – | –
Oc1cccc(-c2cc(-c3ccc(Cl)cc3)c3c(n2)-c2ccccc2C3)c1 | 5.8% | 3.8% | 2090 nM | 1490 nM | 2270 nM | 0.05 | 0.99 | 0.36 | –
Oc1ccc(-c2cc(-c3ccc(Cl)cc3)c3c(n2)-c2ccccc2C3)cc1 | 19.1% | 8.5% | 930 nM | 880 nM | 2450 nM | 0.11 | 1.67 | 0.33 | –
Oc1cccc(-c2cc(-c3cccc(Cl)c3)c3c(n2)-c2ccccc2C3)c1 | 7.5% | 4.4% | 1590 nM | 1850 nM | 1910 nM | 0.06 | 0.79 | 0.43 | –
Oc1cccc(-c2cc(-c3ccccc3Cl)nc3c2Cc2ccccc2-3)c1 | 0% | 3.1% | 400 nM | 310 nM | 2010 nM | 0.25 | 4.74 | 0.41 | –
Oc1cccc(-c2cc(-c3ccccc3Cl)c3c(n2)-c2ccccc2C3)c1 | 29.3% | 6.7% | 1170 nM | 2190 nM | 2650 nM | 0.08 | 0.67 | 0.31 | –
Oc1cccc(-c2cc(-c3ccccc3)nc3c2Cc2ccccc2-3)c1 | 20.6% | 70.5% | 1350 nM | 1550 nM | 4000 nM | 0.91 | 0.86 | 0.22 | –
Oc1ccccc1-c1cc(-c2ccc(Cl)cc2)c2c(n1)-c1ccccc1C2 | 8.3% | 2.8% | > 50000 nM | > 50000 nM | > 50000 nM | – | – | – | –
Oc1ccc(-c2cc(-c3cccc(Cl)c3)c3c(n2)-c2ccccc2C3)cc1 | 35.5% | 4.9% | 810 nM | 1630 nM | 3680 nM | 0.12 | 0.9 | 0.22 | 2.8%
Oc1ccccc1-c1cc(-c2ccccc2Cl)nc2c1Cc1ccccc1-2 | 0.8% | 1.9% | 6230 nM | 6640 nM | 7010 nM | – | – | – | –
CC[C@@]1(O)C(=O)OCc2c1cc1n(c2=O)Cc2cc3ccccc3nc2-1 [CAMPTOTHECIN] | – | – | 1290 nM | 11200 nM | 590 nM | – | – | – | –
Oc1ccccc1-c1cc(-c2ccc(Cl)cc2)nc2c1Cc1ccccc1-2 | 0% | 2.7% | > 50000 nM | > 50000 nM | > 50000 nM | – | – | – | –
Oc1ccc(-c2cc(-c3ccccc3Cl)nc3c2Cc2ccccc2-3)cc1 | 0% | 3.5% | 1820 nM | 790 nM | 2700 nM | 0.05 | 1.86 | 0.3 | –
COc1cc([C@@H]2c3cc4c(cc3[C@@H](O[C@@H]3O[C@@H]5CO[C@@H](C)O[C@H]5[C@H](O)[C@H]3O)[C@H]3COC(=O)[C@H]23)OCO4)cc(OC)c1O [ETOPOSIDE] | – | – | 2820 nM | 1840 nM | 180 nM | – | – | – | –
c1ccc(-c2cc(-c3ccccc3)c3c(n2)-c2ccccc2C3)cc1 | 0% | 17.8% | > 50000 nM | 26800 nM | 17300 nM | – | – | – | –
Oc1ccc(-c2cc(-c3ccc(Cl)cc3)nc3c2Cc2ccccc2-3)cc1 | 1.4% | 3.2% | 870 nM | 1270 nM | 4340 nM | 0.11 | 1.16 | 0.19 | –
Oc1ccc(-c2cc(-c3ccccc3)c3c(n2)-c2ccccc2C3)cc1 | 5.2% | 80.6% | 2010 nM | 2100 nM | 3930 nM | 0.61 | 0.63 | 0.22 | –
Oc1ccccc1-c1cc(-c2cccc(Cl)c2)nc2c1Cc1ccccc1-2 | 0% | 5.4% | 30300 nM | > 50000 nM | 17100 nM | – | – | – | –
Oc1ccc(-c2cc(-c3cccc(Cl)c3)nc3c2Cc2ccccc2-3)cc1 | 0% | 3% | 310 nM | 1420 nM | 5040 nM | 0.32 | 1.03 | 0.16 | –
Oc1cccc(-c2cc(-c3ccc(Cl)cc3)nc3c2Cc2ccccc2-3)c1 | 0% | 3.9% | 1880 nM | 1360 nM | 6580 nM | 0.05 | 1.08 | 0.12 | –
Oc1ccc(-c2cc(-c3ccccc3Cl)c3c(n2)-c2ccccc2C3)cc1 | 15.5% | 1.6% | 840 nM | 1630 nM | 3410 nM | 0.12 | 0.9 | 0.24 | –
COc1cccc2c1C(=O)c1c(O)c3c(c(O)c1C2=O)C[C@@](O)(C(=O)CO)C[C@@H]3O[C@H]1C[C@H](N)[C@H](O)[C@H](C)O1 [DOXORUBICIN HYDROCHLORIDE] | – | – | – | – | 820 nM | – | – | – | –
Oc1ccccc1-c1cc(-c2ccccc2)nc2c1Cc1ccccc1-2 | 15.1% | 69.6% | > 50000 nM | > 50000 nM | > 50000 nM | – | – | – | –
Oc1cccc(-c2cc(-c3ccccc3)c3c(n2)-c2ccccc2C3)c1 | 2.3% | 76% | 2710 nM | 3930 nM | 2990 nM | 0.45 | 0.34 | 0.29 | –
Oc1ccc(-c2cc(-c3ccccc3)nc3c2Cc2ccccc2-3)cc1 | 25.9% | 65.9% | 2150 nM | 1360 nM | 4840 nM | 0.57 | 0.98 | 0.18 | –
Oc1cccc(-c2cc(-c3cccc(Cl)c3)nc3c2Cc2ccccc2-3)c1 | 0% | 3.2% | 3090 nM | 1320 nM | 4590 nM | 0.03 | 1.11 | 0.18 | –
